Source: patent publication US9738614B2, “Malignant and non-malignant disease treatment with Ras antagonists” (PISCES THERAPEUTICS, LLC, priority 2011, dated 2017)

Columns and labels:
[1] = tested on: sNFO2.2 cells; assay: IC50 assay with sNFO2.2 MPNST cells; format: cell-based; details: Homo sapiens, 0.5 to 20 μM, read-out: half-maximal effect on viability
Description: (§1) U87MG cells were seeded in a 24-well plate, 5000 cells per well, and incubated overnight at 37° C. in serum-free media. The next day they were treated in triplicate with 50 and 100 μM of each test compound (1), (2), (3), (4), and (5) and the reference compound FTS. After five days, the cells were trypsinized (0.5%), stained with trypan blue, and counted to determine the cell number per well. The half-maximal inhibitory concentration (IC50) values were calculated using Multiplex Reader-Fit software made by MiraiBio Group, Hitachi Solutions America, Ltd. In a typical experiment, the control wells averaged 138,000 cells. The results are presented graphically in FIG. 1. The test compounds at 50 μM allowed the following U87MG cell proliferation compared to control: compound (1)—37%, compound (2)—18%, compound (3)—10%, compound (4)—40%, and compound (5)—0%. The reference compound FTS at 50 μM allowed 7% cell proliferation compared to control.
(§2) Two additional MPNST cell lines, sNF94.3 and sNFO2.2, were subjected to IC50 assays similar to Examples 6 and 11 above. Like the ST88-14 cells from Example 11, the sNF94.3 and sNFO2.2 cells came from NF-1 patients too.

[2] = tested on: ST88-14 cells; assay: ST88-14 MPNST flank tumors in nude mice; format: in vivo, mouse; details: 5 mg/kg or 10 mg/kg intraperitoneally once a day
Description: ST88-14 cells were injected into the flanks of nude mice and tumors were allowed to grow. When their lengths and widths could readily be determined by palpation, the animals were treated with compound (5) at doses of 5 mg/kg or 10 mg/kg intraperitoneally once a day or vehicle. Tumor dimensions were determined over the course of a 35 day treatment period at the end of which the animals were killed. At this point the tumors were removed and weighed.

[3] = tested on: primary human lung fibroblasts; assay: Inhibition of TGF-β induced myofibroblast formation (α-SMA Western blot); format: cell-based; details: Homo sapiens, Fibroblast, TGF-β 72 hours, 0.5 to 2 μM
Description: Primary human lung fibroblasts were stimulated for 72 hours with transforming growth factor beta (TGF-β) to induce their differentiation to an alpha smooth muscle actin (α-SMA) expressing activated myofibroblasts cell fate. […] The activin like kinase receptor (ALK5) inhibitor SB431542 was used as a positive control. Myofibroblast formation was evaluated by Western blot by examining changes in α-SMA levels.

[4] = tested on: sNF94.3 cells; assay: IC50 assay with sNF94.3 MPNST cells; format: cell-based; details: Homo sapiens, 0.5 to 20 μM, read-out: half-maximal effect on viability
Description: as §1, §2

SMILES: CC(C)=CCC/C(C)=C/CC/C(C)=C/CSc1ccccc1C1=NCCN1 [compound (5), 2-(2-{[(2E,6E)-3,7,11-trimethyldodeca-2,6,10-trien-1-yl]sulfanyl}phenyl)-4,5-dihydro-1H-imidazole]
- IC50 [1]: 2900 nM
- tumor size ([2]; 35 day treatment): dose dependent decrease
- tumor weight ([2]; end of 35 day treatment): dose dependent decrease
- EC50 [3]: ~1000 nM
- IC50 [4]: 2700 nM
